From PubChem BioAssay (NCI)
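These data come from cells grown in 96-well plates and exposed to compound for 48 hours at five concentrations. Here, GI50 denotes the concentration required for 50% inhibition of growth. TGI: concentration producing complete growth inhibition.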

How the values were obtained:
Test in all cases: NCI tumour cell line growth inhibition, 48 h
DU-145 prostate = tested on: DU-145 prostate
UACC-257 melanoma = tested on: UACC-257 melanoma
HCC-2998 colon = tested on: HCC-2998 colon
SNB-75 CNS = tested on: SNB-75 CNS
HCT-15 colon = tested on: HCT-15 colon
NCI/ADR-RES ovarian = tested on: NCI/ADR-RES ovarian
RPMI-8226 leukemia = tested on: RPMI-8226 leukemia
A498 renal = tested on: A498 renal
SK-OV-3 ovarian = tested on: SK-OV-3 ovarian
SN12C renal = tested on: SN12C renal
OVCAR-5 ovarian = tested on: OVCAR-5 ovarian
HCT-116 colon = tested on: HCT-116 colon
HT29 colon = tested on: HT29 colon
K-562 leukemia = tested on: K-562 leukemia
OVCAR-3 ovarian = tested on: OVCAR-3 ovarian
U251 CNS = tested on: U251 CNS
786-0 renal = tested on: 786-0 renal
NCI-H226 lung = tested on: NCI-H226 lung
NCI-H522 lung = tested on: NCI-H522 lung
M14 melanoma = tested on: M14 melanoma
HOP-62 NSCLC = tested on: HOP-62 NSCLC
IGROV1 ovarian = tested on: IGROV1 ovarian
BT-549 breast = tested on: BT-549 breast
OVCAR-4 ovarian = tested on: OVCAR-4 ovarian
ACHN renal = tested on: ACHN renal
SF-539 CNS = tested on: SF-539 CNS
PC-3 prostate = tested on: PC-3 prostate
NCI-H23 lung = tested on: NCI-H23 lung
SK-MEL-5 melanoma = tested on: SK-MEL-5 melanoma
SR leukemia = tested on: SR leukemia
A549 NSCLC = tested on: A549 NSCLC
RXF 393 renal = tested on: RXF 393 renal
SF-268 CNS = tested on: SF-268 CNS
SF-295 CNS = tested on: SF-295 CNS
CCRF-CEM leukemia = tested on: CCRF-CEM leukemia
LOX IMVI melanoma = tested on: LOX IMVI melanoma
T-47D breast = tested on: T-47D breast
SK-MEL-28 melanoma = tested on: SK-MEL-28 melanoma
HL-60(TB) leukemia = tested on: HL-60(TB) leukemia
OVCAR-8 ovarian = tested on: OVCAR-8 ovarian
NCI-H460 lung = tested on: NCI-H460 lung
SK-MEL-2 melanoma = tested on: SK-MEL-2 melanoma
KM12 colon = tested on: KM12 colon
SNB-19 CNS = tested on: SNB-19 CNS
SW-620 colon = tested on: SW-620 colon
TK-10 renal = tested on: TK-10 renal
UACC-62 melanoma = tested on: UACC-62 melanoma
MCF7 breast = tested on: MCF7 breast
MALME-3M melanoma = tested on: MALME-3M melanoma
MDA-MB-231 breast = tested on: MDA-MB-231 breast
EKVX NSCLC = tested on: EKVX NSCLC
CAKI-1 renal = tested on: CAKI-1 renal
MDA-MB-435 = tested on: MDA-MB-435
UO-31 renal = tested on: UO-31 renal
HS 578T breast = tested on: HS 578T breast
HOP-92 NSCLC = tested on: HOP-92 NSCLC
MOLT-4 leukemia = tested on: MOLT-4 leukemia

## COc1cc(OC)c2sc(-c3ccc(-n4cncc4-c4ccc(OC)c(OC)c4)cc3)nc2c1
DU-145 prostate
  GI50: 27.9 µM
  TGI: > 100 µM
UACC-257 melanoma
  GI50: > 100 µM
  TGI: > 100 µM
HCC-2998 colon
  GI50: > 100 µM
  TGI: > 100 µM
SNB-75 CNS
  GI50: 7.21 µM
  TGI: 46 µM
HCT-15 colon
  GI50: > 100 µM
  TGI: > 100 µM
NCI/ADR-RES ovarian
  GI50: > 100 µM
  TGI: > 100 µM
RPMI-8226 leukemia
  GI50: > 100 µM
  TGI: > 100 µM
A498 renal
  GI50: 2.15 µM
  TGI: > 100 µM
SK-OV-3 ovarian
  GI50: > 100 µM
  TGI: > 100 µM
SN12C renal
  GI50: > 100 µM
  TGI: > 100 µM
OVCAR-5 ovarian
  GI50: > 100 µM
  TGI: > 100 µM
HCT-116 colon
  GI50: 5.48 µM
  TGI: > 100 µM
HT29 colon
  GI50: 7.13 µM
  TGI: > 100 µM
K-562 leukemia
  GI50: 5.88 µM
  TGI: > 100 µM
OVCAR-3 ovarian
  GI50: 3.85 µM
  TGI: 35.9 µM
U251 CNS
  GI50: 9.19 µM
  TGI: > 100 µM
786-0 renal
  GI50: > 100 µM
  TGI: > 100 µM
NCI-H226 lung
  GI50: 6.44 µM
  TGI: > 100 µM
NCI-H522 lung
  GI50: 5.27 µM
  TGI: 76.9 µM
M14 melanoma
  GI50: > 100 µM
  TGI: > 100 µM
HOP-62 NSCLC
  GI50: 35.5 µM
  TGI: > 100 µM
IGROV1 ovarian
  GI50: 56.1 µM
  TGI: > 100 µM
BT-549 breast
  GI50: 9.12 µM
  TGI: > 100 µM
OVCAR-4 ovarian
  GI50: 4.21 µM
  TGI: > 100 µM
ACHN renal
  GI50: > 100 µM
  TGI: > 100 µM
SF-539 CNS
  GI50: > 100 µM
  TGI: > 100 µM
PC-3 prostate
  GI50: 3.66 µM
  TGI: > 100 µM
NCI-H23 lung
  GI50: > 100 µM
  TGI: > 100 µM
SK-MEL-5 melanoma
  GI50: 3.61 µM
  TGI: > 100 µM
SR leukemia
  GI50: 3.03 µM
  TGI: > 100 µM
A549 NSCLC
  GI50: 41.8 µM
  TGI: > 100 µM
RXF 393 renal
  GI50: 3.55 µM
  TGI: > 100 µM
SF-268 CNS
  GI50: 9.96 µM
  TGI: > 100 µM
SF-295 CNS
  GI50: 7 µM
  TGI: > 100 µM
CCRF-CEM leukemia
  GI50: > 100 µM
  TGI: > 100 µM
LOX IMVI melanoma
  GI50: > 100 µM
  TGI: > 100 µM
T-47D breast
  GI50: 3.78 µM
  TGI: > 100 µM
SK-MEL-28 melanoma
  GI50: > 100 µM
  TGI: > 100 µM
HL-60(TB) leukemia
  GI50: 3.09 µM
  TGI: > 100 µM
OVCAR-8 ovarian
  GI50: 21.2 µM
  TGI: > 100 µM
NCI-H460 lung
  GI50: 6.06 µM
  TGI: > 100 µM
SK-MEL-2 melanoma
  GI50: 41.4 µM
  TGI: > 100 µM
KM12 colon
  GI50: 6.8 µM
  TGI: > 100 µM
SNB-19 CNS
  GI50: > 100 µM
  TGI: > 100 µM
SW-620 colon
  GI50: > 100 µM
  TGI: > 100 µM
TK-10 renal
  GI50: 31.7 µM
  TGI: > 100 µM
UACC-62 melanoma
  GI50: 8.14 µM
  TGI: > 100 µM
MCF7 breast
  GI50: 5.37 µM
  TGI: > 100 µM
MALME-3M melanoma
  GI50: 59.9 µM
  TGI: > 100 µM
MDA-MB-231 breast
  GI50: 28.4 µM
  TGI: > 100 µM

## CCCCc1n(Cc2ccc3ccccc3c2)c2ccccc2[n+]1Cc1ccc2ccccc2c1
UACC-257 melanoma
  GI50: 0.925 µM
  TGI: 2.23 µM
OVCAR-5 ovarian
  GI50: 0.521 µM
  TGI: 1.9 µM
ACHN renal
  GI50: 1.4 µM
  TGI: 2.82 µM

## N=C(N)c1ccc(-c2ccc(-c3ccc(Cl)c(Cl)c3)s2)cc1
DU-145 prostate
  GI50: 1.75 µM
  TGI: 3.13 µM
RPMI-8226 leukemia
  GI50: 1.89 µM
  TGI: 4.37 µM
BT-549 breast
  GI50: 6.39 µM
  TGI: 50 µM
CCRF-CEM leukemia
  GI50: 1.54 µM
  TGI: 4.26 µM
HL-60(TB) leukemia
  GI50: 1.7 µM
  TGI: 4.23 µM
SK-MEL-2 melanoma
  GI50: 2.51 µM
  TGI: 5.8 µM

## COc1ccc(Nc2nc(Nc3cc(C)[nH]n3)c3cc(OC)c(OC)cc3n2)cc1
DU-145 prostate
  GI50: 1.03 µM
  TGI: 2.24 µM
HCC-2998 colon
  GI50: 1.32 µM
  TGI: 2.9 µM
SNB-75 CNS
  GI50: 1.66 µM
  TGI: 3.15 µM
HCT-15 colon
  GI50: 0.685 µM
  TGI: 2.45 µM
EKVX NSCLC
  GI50: 1.48 µM
  TGI: 2.94 µM
CAKI-1 renal
  GI50: 1.59 µM
  TGI: 2.95 µM
RPMI-8226 leukemia
  GI50: 0.278 µM
  TGI: 0.782 µM
SK-OV-3 ovarian
  GI50: 1.83 µM
  TGI: 3.33 µM
MDA-MB-435
  GI50: 1.23 µM
  TGI: 2.58 µM
OVCAR-5 ovarian
  GI50: 2 µM
  TGI: 3.74 µM
OVCAR-3 ovarian
  GI50: 1.01 µM
  TGI: 2.26 µM
786-0 renal
  GI50: 1.49 µM
  TGI: 3.02 µM
UO-31 renal
  GI50: 1.45 µM
  TGI: 2.93 µM
NCI-H522 lung
  GI50: 1.44 µM
  TGI: 4.48 µM
M14 melanoma
  GI50: 1.31 µM
  TGI: 2.89 µM
BT-549 breast
  GI50: 1.4 µM
  TGI: 2.9 µM
HS 578T breast
  GI50: 1.25 µM
  TGI: 3.15 µM
OVCAR-4 ovarian
  GI50: 0.789 µM
  TGI: 2.22 µM
ACHN renal
  GI50: 1.45 µM
  TGI: 2.78 µM
SF-539 CNS
  GI50: 1.1 µM
  TGI: 2.39 µM
HOP-92 NSCLC
  GI50: 1.29 µM
  TGI: 2.93 µM
NCI-H23 lung
  GI50: 1.16 µM
  TGI: 2.82 µM
SK-MEL-5 melanoma
  GI50: 1.37 µM
  TGI: 3.05 µM
SR leukemia
  GI50: 0.386 µM
  TGI: > 100 µM
RXF 393 renal
  GI50: 1.49 µM
  TGI: 2.83 µM
MOLT-4 leukemia
  GI50: 0.389 µM
  TGI: 2.58 µM
SF-268 CNS
  GI50: 1.35 µM
  TGI: 2.92 µM
SF-295 CNS
  GI50: 1.33 µM
  TGI: 2.68 µM
LOX IMVI melanoma
  GI50: 0.441 µM
  TGI: 1.7 µM
T-47D breast
  GI50: 1.07 µM
  TGI: 3.48 µM
SK-MEL-28 melanoma
  GI50: 1.7 µM
  TGI: 3.26 µM
NCI-H460 lung
  GI50: 0.569 µM
  TGI: 2.09 µM
SK-MEL-2 melanoma
  GI50: 1.77 µM
  TGI: 3.56 µM
KM12 colon
  GI50: 0.61 µM
  TGI: 2.09 µM
SNB-19 CNS
  GI50: 1.56 µM
  TGI: 3.18 µM
SW-620 colon
  GI50: 0.314 µM
  TGI: 1.02 µM
UACC-62 melanoma
  GI50: 1.71 µM
  TGI: 3.39 µM
MCF7 breast
  GI50: 0.457 µM
  TGI: 2.05 µM
MALME-3M melanoma
  GI50: 1.65 µM
  TGI: 3.19 µM
MDA-MB-231 breast
  GI50: 1.35 µM
  TGI: 2.9 µM
